Source: US20150164874A1, “PIRFENIDONE AND ANTI-FIBROTIC THERAPY IN SELECTED PATIENTS” (INTERMUNE, INC., priority 2011, published 2015)

How the values were obtained:
[1] = test system: IPF patients with mild to moderate impairment in lung function; assay: Phase 3 trials Study 1 and Study 2 of pirfenidone vs placebo in IPF patients, retrospective re-analysis (ITT vs novel selection criteria); format: in vivo, human; details: for 6MWT change from baseline, Relative Δ / % DLco change from baseline, Relative Δ / % FVC ≧10% decline, Relative Δ / Progression-free survival, time to event HR / SpO2 During 6MWT change from baseline, Relative Δ / Survival, time to event HR / UCSD SOBQ (dyspnea) change from baseline, Relative Δ / Worsening IPF, time to event HR: Study 1 and Study 2 pooled, pirfenidone vs placebo; for Interaction with Treatment: Group with Greater Pirfenidone Effect: multivariate model of FVC decline at 72 weeks
Source text: Two multinational, randomized, double-blind, placebo-controlled Phase 3 trials, referred to herein as Study 1 and Study 2, were designed and performed to evaluate the safety and efficacy of pirfenidone in IPF patients with mild to moderate impairment in lung function. Both trials enrolled patients in North America, Europe and Australia with roughly 75% of the total 779 patients enrolled in North America.
Study 1 enrolled a total of 344 patients. Patients were randomized 1:1 to receive a total daily dose of 2403 mg pirfenidone, or placebo. Study 2 enrolled a total of 435 patients, and patients were randomized 2:2:1 to receive a total daily dose of 2403 mg pirfenidone, or placebo, or a total daily dose of 1197 mg pirfenidone, respectively. The total daily dose of pirfenidone was administered in three divided doses, three times per day.
If the surgical lung biopsy or HRCT scans were ambiguous, the slides or HRCT images were evaluated by an adjudicator for a second opinion.
Exclusion criteria included: FEV1/FVC<0.7 after bronchodilator administration, bronchodilator response, RV>120%, history of significant environmental exposure known to cause pulmonary fibrosis, and diagnosis of connective tissue disease or other known explanation of interstitial lung disease (ILD).
Enrollment of both trials was completed in less than 13 months following randomization of the first patient into the program in late April 2006. Ninety-seven percent (97%) of all patients in the two studies who were living and had not received a lung transplant, completed their Week 72 study visit.
The primary endpoint of both trials was change in percent predicted Forced Vital Capacity (FVC) after 72 weeks of treatment evaluated with a nonparametric rank ANCOVA analysis. The pre-specified secondary endpoints monitored during the studies included: (a) Time to worsening of IPF, defined as time to acute IPF exacerbation, IPF-related death, lung transplant or respiratory hospitalization, whichever comes first; (b) Progression-free survival defined as time to the first occurrence of either of the following (as compared to the patient's baseline): (1) 10% absolute decline in percent predicted FVC, or (2) 15% absolute decline in percent predicted Hb-corrected DL(CO), or (3) death (in the case of FVC or DL(CO), the decline must be confirmed at two consecutive visits at least 6 weeks apart); (c) Categorical assessment of absolute change from Baseline to Week 72 in percent predicted FVC; (d) Change from Baseline to Week 72 in dyspnea measured by the University of California at San Diego Shortness-of-Breath Questionnaire (UCSD SOBQ); (e) Change from Baseline to Week 72 in the percent predicted Hb-corrected DL(CO); (f) Change from Baseline to Week 72 in the worst oxygen saturation by pulse oximetry (SpO2) measurement observed during the Six-Minute Walk Test; (g) Change from Baseline to Week 72 in distance walked in the Six-Minute Walk Test (6MWT).
After the studies were completed, a retrospective multivariate model of data identified predictors of greater FVC decline at 72 weeks and variables that have a statistical interaction with pirfenidone treatment (i.e. the magnitude of the pirfenidone treatment effect is different at different levels of these variables).
Data from Study 1 and Study 2 were re-analyzed, selecting patients according to the following novel criteria instead of the original Intention To Treat (IIT) criteria:
(c) Time since IPF diagnosis >0.5 years and <48 months
Mean change in FVC in pirfenidone-treated vs. placebo-treated groups from Study 1 and Study 2, for the original patient population selected using the ITT criteria, is shown in FIG. 2A. When the patient population is instead selected using the novel criteria above, the mean change in FVC in pirfenidone-treated vs. placebo-treated groups for the patient is shown in FIG. 2B. Patients in both pirfenidone-treated and placebo-treated groups experienced a decline in mean % FVC from baseline. […]

[2] = test system: IPF patients with mild to moderate impairment in lung function; assay: Phase 3 study of Actimmune in 826 IPF patients, retrospective analysis of FVC progression; format: in vivo, human; details: Phase 3 study 2003-2007
Source text: FIGS. 1A-1D depicts a analysis of FVC progression from a clinical trial involving a different drug, interferon gamma-lb, which is inert with respect to effect on efficacy outcomes, in 826 patients with IPF, when the patients are segregated according to % FVC (FIG. 1A), % DLco (FIG. 1B), time since IPF diagnosis (FIG. 1C) and FEV1/FVC ratio (FIG. 1D).
In a prior trial involving 826 patients, data regarding progression of FVC was collected as part of a randomized, double-blind, placebo-controlled Phase 3 study conducted from 2003-2007 that was designed to evaluate the safety and efficacy of Actimmune(R) in IPF patients with mild to moderate impairment in lung function.

[3] = Study 1 and Study 2, novel criteria, week 72
[4] = Study 1 and Study 2, original ITT criteria, week 48
[5] = Study 1 and Study 2, original ITT criteria, week 72

Cc1ccc(=O)n(-c2ccccc2)c1 [pirfenidone, 5-methyl-1-phenyl-2-(1H)-pyridone]
6MWT change from baseline, Relative Δ ([1]; Novel criteria, week 48): 64.2%
% DLco change from baseline, Relative Δ ([1]; Novel criteria, week 48): 36.9%
% FVC ≧10% decline, Relative Δ ([1]; Novel criteria, week 48): 60.4%
Progression-free survival, time to event HR ([1]; Novel criteria, week 48): 0.31
SpO2 During 6MWT change from baseline, Relative Δ ([1]; Novel criteria, week 48): 62.3%
Survival, time to event HR ([1]; Novel criteria, week 48): 0.16
UCSD SOBQ (dyspnea) change from baseline, Relative Δ ([1]; Novel criteria, week 48): −46.5%
Worsening IPF, time to event HR ([1]; Novel criteria, week 48): 0.75
6MWT change from baseline, Relative Δ ([1]; Pooled ITT, week 48): 41%
% DLco change from baseline, Relative Δ ([1]; Pooled ITT, week 48): 16%
% FVC ≧10% decline, Relative Δ ([1]; Pooled ITT, week 48): 39%
Progression-free survival, time to event HR ([1]; Pooled ITT, week 48): 0.53
SpO2 During 6MWT change from baseline, Relative Δ ([1]; Pooled ITT, week 48): 21%
Survival, time to event HR ([1]; Pooled ITT, week 48): 0.42
UCSD SOBQ (dyspnea) change from baseline, Relative Δ ([1]; Pooled ITT, week 48): −29%
Worsening IPF, time to event HR ([1]; Pooled ITT, week 48): 0.80
absolute difference in mean change from baseline % FVC between pirfenidone-treated and placebo-treated groups ([1]; Study 1 and Study 2, novel criteria (% FVC 50%-90%, FEV1/FVC >0.80, time since diagnosis >0.5 years and <48 months), week 48): 6.1%
relative difference in mean change from baseline % FVC between pirfenidone-treated and placebo-treated groups ([1]; Study 1 and Study 2, novel criteria, week 48): 63.3%
absolute difference in mean change from baseline % FVC between pirfenidone-treated and placebo-treated groups [1, 3]: 7.9%
relative difference in mean change from baseline % FVC between pirfenidone-treated and placebo-treated groups [1, 3]: 57.0%
absolute difference in mean change from baseline % FVC between pirfenidone-treated and placebo-treated groups [1, 4]: 3.3%
relative difference in mean change from baseline % FVC between pirfenidone-treated and placebo-treated groups [1, 4]: 41.6%
absolute difference in mean change from baseline % FVC between pirfenidone-treated and placebo-treated groups [1, 5]: 2.5%
relative difference in mean change from baseline % FVC between pirfenidone-treated and placebo-treated groups [1, 5]: 22.8%
Interaction with Treatment: Group with Greater Pirfenidone Effect ([1]; variable % FVC (90%), P-value 0.096): FVC <90%
Interaction with Treatment: Group with Greater Pirfenidone Effect ([1]; variable Time since Diagnosis of IPF (0.5 yrs), P-value 0.043): Time >0.5 years

B1: Actimmune: a different drug, interferon gamma-lb, inert with respect to effect on efficacy outcomes in IPF (protein, UniProt P01579 24-161, looked up)
Interferon gamma: QDPYVKEAENLKKYFNAGHSDVADNGTLFLGILKNWKEESDRKIMQSQIVSFYFKLFKNFKDDQSIQKSVETIKEDMNVKFFNSNKKKRDDFEKLTNYSVTDLNVQRKAIHELIQVMAELSPAAKTGKRKRSQMLFRG
effect on FVC progression / efficacy outcomes [2]: does not have an effect on these outcomes
